The source of these data is publication PMC12005787, “Synthetic Lethality of SHP2 and XIAP Suppresses Proliferation and Metastasis in KRAS‐mutant Nonsmall Cell Lung Cancer” (Advanced Science, 2025).

The test system of one data set is NCI‐H2122 cells. Put plainly: ROS release assay. It counts as cell-based, human. Particulars: 24 h. How it is done: incubated with a horseradish peroxidase (HRP)-conjugated secondary antibody at room
temperature for 2 h and then incubated with enhanced chemiluminescence (ECL) solutions for
15 s at room temperature. A fully automated gel imaging system (General Electric Company,
USA) was used for the exposure imaging.
NCI-H2122 cells were inoculated into 96-well plates specialized for high-content cell
imaging, treated with various drugs, fixed with 4% neutral formaldehyde, and sealed with 5%
BSA after permeabilization with 0.05% Triton X-100. Subsequently, the cells were incubated
with the given primary antibody overnight at 4 °C and then with corresponding fluorescent
secondary antibody in dark at room temperature for 1 h. […] (DAPI)
was applied to nuclear staining. Fluorescence images were captured using a high-content
analyzer (Thermo Scientific, USA).
NCI-H2122 cells treated with the given disposal were digested with trypsin, resuspended
in cold PBS, and centrifuged at room temperature (1000×g for 5 min) to discard the
supernatant. […]
RNaseA) was incubated in dark at 37℃ for 30 min. Red fluorescence and light scattering
were detected by flow cytometry at 488 nm. Cell cycle results were analyzed and visualized […]
intracellular ROS levels were detected by flow cytometry (λa = 488 nm, λe = 525 nm). […]
sealed with a DAPI-containing anti-fluorescence quenching sealer for 30 min at room […]

Another data set deals with NCI‐H2122 tumor. The experiment in a line: NCI-H2122 subcutaneous transplantation tumor model. It counts as in vivo, BALB/c‐nu mouse. Particulars: i.p., q2d. How it is done: NCI‐H2122 cells in the logarithmic growth phase were collected by mixing serum‐free RMPI‐1640 medium and Matrigel matrix gel, and injected subcutaneously into the right axilla of thymus‐less male BALB/c‐nu nude mice. Tumor volume was calculated according to V = ab^2/2 (where a and b are the long and short diameters of the tumor, respectively), and body weight was recorded every 3 days. When the tumor volume reached 100 mm^3, the mice were randomly divided into six groups (ten mice in each group): Control group (i.p, q2d), SHP099 (20 mg kg^−1, i.p, q2d) group, GDC‐0152 (20 mg kg^−1, i.p, q2d) group, SHP099 (20 mg kg^−1, i.p, q2d) + GDC‐ 0152 (20 mg kg^−1, i.p, q2d) co‐administration group, embelin (20 mg kg^−1, i.p, q2d) medium‐dose group and embelin (30 mg kg^−1, i.p, q2d) high‐dose group. When the tumor volume reached 1000 mm^3, all experimental mice were sacrificed, and tumor tissues and major organs, such as the heart, liver, spleen, lungs, and kidneys, were collected for further study.

Consider `CCCCCCCCCCCC1=C(O)C(=O)C=C(O)C1=O` [Embelin], for which the “effect on ROS release” value in the data set with NCI‐H2122 cells is listed as “promoted ROS release”. In addition, in the data set with NCI‐H2122 tumor, the “effect on body weight of the mice” value was “little or no effect on the body weight”; the “effect on weights of hearts, livers, lungs, and kidneys and structure of hearts and kidneys” value is reported as “no significant effect”. In addition, the “effect on tumor growth in vivo” value in the data set on NCI‐H2122 tumor (embelin 20 and 30 mg kg^−1, GDC‐0152 20 mg kg^−1 + SHP099 20 mg kg^−1) is recorded as “significantly inhibited the tumor growth rate”.
For `CC1(N)CCN(c2cnc(-c3cccc(Cl)c3Cl)c(N)n2)CC1` [SHP099], in the data set with NCI‐H2122 cells, the “effect on ROS release” value is “promoted ROS release”. Also, in the data set with NCI‐H2122 tumor, the “effect on body weight of the mice” value was “little or no effect on the body weight”; the “effect on weights of hearts, livers, lungs, and kidneys and structure of hearts and kidneys” value was “no significant effect”.
